Results taken from patent publication US9839674B2, “Methods of inducing indolamine 2,3—dioxygenase (IDO)” (IDOGEN AB, priority 2010, dated 2017).

Key:
[1] = test system: IDO1 expression in THP-1 cells; assay: IDO1 expression in THP-1 cells by PCR / quantitative real-time PCR; format: cell-based, human; settings: for IDO1 expression (relative value): zebularine 100 uM, interferon gamma 200 IU/ml, alone or both together, FIG. 1
Protocol: (§1) THP-1 (ATCC: TIB-202) is a human monocytic cell line that originates from an acute monocytic leukemia. It has the phenotype of monocytes but can be differentiated to a more dendritic phenotype. In the current study, the THP-1 cells were in vitro passaged in RPMI 1640 medium supplemented with 5% or 10% FCS, 10 mM Hepes, 1 mM Sodium pyruvate, and 50 ug/ml gentamicin (R5 or R10 medium respectively). The cell density was adjusted to 200 000 cells per ml, and the cultures were incubated for four to seven days at 37° C. with 10% CO2 in a humidified incubator. The substance, or combination of substances, being studied, were added to the medium at specified time points and in the case of IFN-gamma removed from medium as indicated. 96-168 hours after initiation of treatment, the IDO expression was assessed by PCR or by Quantitative PCR (Roche). RNA was extracted from cells cultured in flasks or six-well plates using Trizol reagent according to Invitrogen's protocol. Residual DNA was removed through Rnase free DNase (Roche Applied Science) treatment. Quality and quantity of the isolated RNA was measured by spectrophotometer and gel electrophoresis.
Quantitative real-time PCR analyses (qRT-PCR) were performed using Super-Script III Platinum Two-Step qRT-PCR Kit with SYBR Green (Invitrogen). A total of 100-500 ng total RNA was used in a 20 ul RT reaction using a mixture of polydT and random hexamer primers. The cDNA obtained was diluted to a total volume of 80 ul and stored at −20° C. The primer sequences for the different genes were designed using Gene Fisher software support (G. Giegerich, F. Meyer, C. Schleiermacher, ISMB-96). The primers used for amplification of the IDO gene were: Forward: SEQ ID NO: 5—5′-[…]-3′, Primer sequences, Reverse: SEQ ID NO: 6—TTTCACA-CAGGCGTCATAAGCT-3′.
Hypoxanthine guanine phosphoribosyl transferase (HPRT) HPRT Forward: SEQ ID NO: 7—5′-[…]-3′, HPRT Reverse: SEQ ID NO: 8—5′-[…]-3′ according to the cDNA sequence, were used. The qRT-PCR was performed in 20 ul reaction consisting of 2 ul diluted cDNA (12.5 ng), 0.3 uM of each primer, 1 ul bovine serum albumin (50 ug/ml), and 10 ul Platinum SYBR Green qRT-PCR superMix-UDG. The amplification of IDO was carried out in a Light Cycler (Roche Molecular Biochemicals) with the following thermal profile: Platinum SYBR Green qRT-PCR superMix-UDG incubation at 50° C. for 2 min, then denaturing at 95° C. for 5 min, followed by 45 cycles at 94° C. for 2 s, 58° C. for 10 s, and 72° C. for 14 s. The amplification of HPRT was carried out as follows, UDG incubation at 50° C. for 2 min, denaturing at 95° C. for 5 min, followed by 45 cycles at 94° C. for 2 s, 55° C. for 10 s, and 72° C. for 14 s. After amplification a melting curve analysis was performed. The qRT-PCR experiments were always run in triplicate.

[2] = test system: IDO1 expression in THP-1 cells; assay: IDO1 expression in THP-1 cells by reverse transcriptase PCR (bands), kinetics; format: cell-based, human
Protocol: as §1
The sequences of forward primers and reverse primers for the human IDO-1 gene analyzed and the house-keeping gene HPRT respectively, were: IDO-1 forward: 5′-[…]-3′, reverse: 5′-C AGAC AAAT AT A TGCGAAGAAC; HPRT Forward: 5′-[…]-3′, HPRT Reverse: 5′-ACTAAGCAGATGGCCAC AGAA-3′. The PCR conditions were set as follows: 1 denaturing cycle at 94° C. for 2 min followed by 40 cycles (for the IDO-1) or 30 cycles (for the HPRT) at 94° C. for 15 s, 53° C. for 30 s, and 72° C. for 30 s with a final extension reaction at 72° C. for 5 min.
Materials and methods used were the same as described in Example 1 above. […] In panel B, the THP-1 cells were given zebularine alone during 5 days and a weak band was detected. […] In panel C the THP-1 cells were exposed to zebularine for 6 days and interferon gamma was given during 24 hours after four days and the cells were harvested after a total of 6 days. […]

[3] = test system: allotransplanted Lewis rat pancreatic islets; assay: Rejection of allotransplanted pancreatic islets beneath the kidney capsule (blood glucose follow up); format: in vivo; settings: Fischer 344 rats, 225 mg/kg intraperitoneal daily for 14 days starting 6-8 days after transplantation, FIG. 16
Protocol: Pancreatic islets were isolated from the pancreas of Lewis rats by established technique. After culture at 37° C. over night, 500-1200 islets were implanted beneath the kidney capsule of adult (11-14 weeks old) Fischer 344 rats that were confirmed hyperglucemic (blood glucose >20 mMol/L) after having received a single dose of 35-40 mg/kg intraperitoneally of Streptozotocine, which is selectively toxic to the insulin producing beta cells present in the pancreatic islets. […] The two exceptional rats that maintained a normal blood sugar were subjected to nephrectomy 40 and 43 days after transplantation to check whether their normal blood glucose was a result of unexpected sustained survival of the grafted islets (in which case their blood sugar should promptly increase upon removal of the graft) or was due to a recovery of some Streptozotocine-damaged pancreatic islets (in which case their blood sugar should stay normal despite removal of the graft). […] Twenty two days after transplantation only 1/10 of the zebularine treated rats had rejected the graft as indicated by a normal blood sugar in all but this single rat at completion of the treatment 20-22 days after transplantation and in all of 7 analyzed >1 week after the zebularine treatment was stopped (FIG. 16).

[4] = IFN-g 100 iu/ml or IFN-A alone for 24 h (day 4), FIG. 11
[5] = IFN-g 100 iu/ml or interferon A 25 ng/ml alone for 24 h (day 4), FIG. 12

Row | Compound | IDO1 expression after 168 h of culture [1, 4] | IDO1 expression after 168 h of culture [1, 5] | course of IDO1 induction after the first 24 hours ([1]; interferon gamma 200 IU/ml initial 24 h, alone or with zebularine 100 uM for the entire period, harvest 48-96 h, FIG. 5) | IDO1 expression after 10, 12 or 14 days of culture ([1]; interferon gamma 200 iu/ml alone for 24 h on day 4, FIG. 10) | IDO1 induction after 24 hours ([1]; zebularine 100 uM or interferon gamma 200 IU/ml alone, harvest 24 h, FIG. 5) | IDO1 expression (relative value) [1] | IDO1 expression (RT-PCR band), panel B ([2]; zebularine 5 days, interferon gamma after 3 days for 24 h, tested 24 hours after removal, FIG. 6B) | IDO1 expression (RT-PCR band), panel C ([2]; zebularine 6 days, interferon gamma 24 hours after four days, harvest after 6 days, FIG. 6C) | IDO1 expression (RT-PCR band), panel A ([2]; zebularine four days, interferon gamma added after 3 days, 24 hours before harvest, FIG. 6A) | rats that had rejected the graft twenty two days after transplantation [3]
1 | interferon A | minimal | minimal |  |  |  |  |  |  |  | 
2 | interferon gamma: interferon gamma (Sigma), IDO inducer | minimal | minimal | not sustained and dropped rapidly | minimal | strong | 80 | weak band | almost no IDO1 induction | strong band | 
3 | O=c1ncccn1[C@@H]1O[C@H](CO)[C@@H](O)[C@H]1O [zebularine, reference compound] |  |  |  |  |  | 9 |  |  |  | 1/10
